± gives the standard deviation of the averaged measurements.
Key:
Conditions in all cases: 72 h
[1] = test system: Caco-2; assay: cell viability relative to DMSO; higher = less toxic
[2] = test system: Calu-3; assay: as above
[3] = test system: HepG2; assay: as above
[4] = test system: U2OS; assay: as above
[5] = test system: Vero E6; assay: as above
[6] = test system: Caco-2; assay: relative viability EC50 (midpoint between 100% and the lowest measured viability); higher = less toxic
[7] = test system: Calu-3; assay: as above
[8] = test system: HepG2; assay: as above
[9] = test system: U2OS; assay: as above
[10] = test system: Vero E6; assay: as above
[11] = test system: Caco-2; assay: drug sensitivity score (DSS) for viability; higher = more toxic; extreme values may be limits of the assay
[12] = test system: Calu-3; assay: as above
[13] = test system: HepG2; assay: as above
[14] = test system: U2OS; assay: as above
[15] = test system: Vero E6; assay: as above

Row | Structure (SMILES) | cell viability ([1]; 1 nM) | cell viability ([1]; 10 nM) | cell viability ([1]; 100 nM) | cell viability ([1]; 1000 nM) | cell viability ([1]; 10000 nM) | cell viability ([2]; 1 nM) | cell viability ([2]; 10 nM) | cell viability ([2]; 100 nM) | cell viability ([2]; 1000 nM) | cell viability ([2]; 10000 nM) | cell viability ([3]; 1 nM) | cell viability ([3]; 10 nM) | cell viability ([3]; 100 nM) | cell viability ([3]; 1000 nM) | cell viability ([3]; 10000 nM) | cell viability ([4]; 1 nM) | cell viability ([4]; 10 nM) | cell viability ([4]; 100 nM) | cell viability ([4]; 1000 nM) | cell viability ([4]; 10000 nM) | cell viability ([5]; 1 nM) | cell viability ([5]; 10 nM) | cell viability ([5]; 100 nM) | cell viability ([5]; 1000 nM) | cell viability ([5]; 10000 nM) | relative viability EC50 [6] | relative viability EC50 [7] | relative viability EC50 [8] | relative viability EC50 [9] | relative viability EC50 [10] | drug sensitivity score [11] | drug sensitivity score [12] | drug sensitivity score [13] | drug sensitivity score [14] | drug sensitivity score [15]
1 | COc1ccc(C2CNC(=O)NC2)cc1O[C@H]1C[C@@H]2CC[C@H]1C2 [atizoram] | 95.3% | 96.9% | 98.6% | 96.6% | 102% | 103% | 102% | 96.3% | 108% | 108% | 99% | 107% | 102% | 94.1% | 82.8% | 106% | 96.5% | 101% | 102% | 103% | 96.5% | 105% | 100% | 99.5% | 87.4% | > 10 µM | > 10 µM | > 10 µM | > 10 µM | > 10 µM | 0 | 0 | 1 | 0 | 0.1
2 | NCCc1cc[nH]n1 [betazole] | 89% | 91.4% | 84.3% | 92.6% | 107% | 97.2% | 102% | 97.2% | 101% | 109% | 100% | 106% | 92.9% | 98% | 125% | 102% | 99.5% | 105% | 102% | 108% | 94.4% | 104% | 92.8% | 106% | 106% | > 10 µM | > 10 µM | > 10 µM | > 10 µM | > 10 µM | 0 | 0 | 0 | 0 | 0
3 | COc1ccc(CCNCC(O)COc2cccc(C)c2)cc1OC (stereo not given) [bevantolol] | 94.3% | 111% | 103% | 90.3% | 104% | 107% | 103% | 102% | 113% | 96% | 90.1% | 87.2% | 99.7% | 89.8% | 92.1% | 101% | 95.9% | 101% | 101% | 99.8% | 98.5% | 95.8% | 94.7% | 90.1% | 98.7% | > 10 µM | > 10 µM | > 10 µM | > 10 µM | > 10 µM | 0 | 0 | 0 | 0 | 0
4 | Nc1c(CC(=O)O)cccc1C(=O)c1ccc(Br)cc1 [bromfenac] | 88.1% | 94.3% | 93.4% | 95.7% | 101% | 95.7% | 97% | 104% | 84.2% | 97.7% | 96.3% | 97.4% | 97.2% | 104% | 104% | 100% | 98.6% | 103% | 99.4% | 96% | 95.4% | 103% | 98.1% | 97.3% | 105% | > 10 µM | > 10 µM | > 10 µM | > 10 µM | > 10 µM | 0 | 0 | 0 | 0 | 0
5 | CCCCOC(=O)c1ccc(N)cc1 [butamben] | 108% | 94% | 95.6% | 90.9% | 97.5% | 98.6% | 96.7% | 94.2% | 93.7% | 94.1% | 104% | 93.6% | 124% | 112% | 124% | 98.7% | 96.5% | 102% | 94.9% | 103% | 94.2% | 102% | 96.3% | 92.8% | 82.3% | > 10 µM | > 10 µM | > 10 µM | > 10 µM | > 10 µM | 0 | 0 | 0 | 0 | 0.7
6 | CC[C@H](C)C[C@H](C)CCCCCCCCC(=O)N[C@H]1C[C@@H](O)[C@@H](NCCN)NC(=O)[C@@H]2[C@@H](O)CCN2C(=O)[C@H]([C@H](O)CCN)NC(=O)[C@H]([C@H](O)[C@@H](O)c2ccc(O)cc2)NC(=O)[C@@H]2C[C@@H](O)CN2C(=O)[C@H]([C@@H](C)O)NC1=O [caspofungin] | 88.2 ± 4.6% | 96.5 ± 3% | 115 ± 24% | 90.2 ± 18% | 95 ± 1.3% | 104 ± 13% | 104 ± 14% | 104 ± 1.4% | 96.5 ± 5.9% | 89.5 ± 0.85% | 91.8% | 106% | 110% | 116% | 103% | 95.2 ± 2.2% | 95.6 ± 0.14% | 98 ± 1.3% | 98.2 ± 6.6% | 99 ± 1.6% | 98.1 ± 1.8% | 99 ± 3.3% | 98.85 ± 0.64% | 95.1 ± 1.6% | 101 ± 7.1% | > 10 µM | > 10 µM | > 10 µM | > 10 µM | > 10 µM | 1.35 ± 1.9 | 0.1 ± 0.14 | 0 | 0 | 0
7 | CC1=C(C(=O)O)N2C(=O)[C@@H](NC(=O)[C@H](N)c3ccc(O)cc3)[C@H]2SC1 [cefadroxil] | 92.8% | 93.5% | 93.1% | 85.7% | 99.1% | 100% | 99.1% | 107% | 93.2% | 106% | 90.4% | 101% | 95.6% | 103% | 105% | 101% | 96.2% | 99.4% | 97% | 103% | 89.4% | 101% | 91.8% | 98.1% | 104% | > 10 µM | > 10 µM | > 10 µM | > 10 µM | > 10 µM | 0 | 0 | 0 | 0 | 0
8 | CO[C@@]1(NC(=O)Cc2cccs2)C(=O)N2C(C(=O)O)=C(COC(N)=O)CS[C@@H]21 [cefoxitin] | 90.1% | 95.5% | 102% | 101% | 97.8% | 106% | 94.4% | 106% | 104% | 110% | 113% | 91.4% | 98.1% | 97.4% | 97.4% | 95.6% | 99% | 96.3% | 102% | 105% | 104% | 95.7% | 100% | 96.8% | 85.5% | > 10 µM | > 10 µM | > 10 µM | > 10 µM | > 10 µM | 0 | 0 | 0 | 0 | 0.5
9 | Nc1nc(/C(=C/CC(=O)O)C(=O)N[C@@H]2C(=O)N3C(C(=O)O)=CCS[C@H]23)cs1 [ceftibuten] | 102% | 102% | 106% | 94.9% | 104% | 103% | 99.9% | 102% | 94.6% | 106% | 86.3% | 105% | 99.3% | 95.3% | 91% | 101% | 95% | 100% | 97.8% | 106% | 99.5% | 104% | 96.1% | 104% | 97.8% | > 10 µM | > 10 µM | > 10 µM | > 10 µM | > 10 µM | 0 | 0 | 0 | 0 | 0
10 | CN1C(=O)CCS(=O)(=O)C1c1ccc(Cl)cc1 (stereo not given) [chlormezanone] | 94.4% | 96.2% | 101% | 95.7% | 99.6% | 96% | 102% | 96.6% | 97.6% | 102% | 96.5% | 97.7% | 96.7% | 103% | 103% | 101% | 97.1% | 102% | 95.7% | 103% | 103% | 106% | 104% | 103% | 97.8% | > 10 µM | > 10 µM | > 10 µM | > 10 µM | > 10 µM | 0 | 0 | 0 | 0 | 0
11 | Cc1cc(O)c(C(C)C)cc1Cl [chlorothymol] | 95.6% | 90.3% | 95.8% | 101% | 99.6% | 100% | 83.8% | 101% | 93.5% | 91.9% | 89.8% | 90.1% | 92.9% | 98.7% | 104% | 99.5% | 97.9% | 104% | 95.9% | 102% | 96.9% | 96.9% | 93.7% | 100% | 109% | > 10 µM | > 10 µM | > 10 µM | > 10 µM | > 10 µM | 0 | 0 | 0 | 0 | 0
12 | Nc1ccn(C[C@@H](CO)OCP(=O)(O)O)c(=O)n1 [cidofovir] | 103% | 92.7% | 106% | 96.8% | 101% | 93.7% | 104% | 112% | 101% | 107% | 97% | 98.3% | 104% | 111% | 120% | 99.4% | 95.7% | 97.5% | 95.3% | 98.7% | 93.7% | 94.3% | 88.4% | 87.4% | 99.6% | > 10 µM | > 10 µM | > 10 µM | > 10 µM | > 10 µM | 0 | 0 | 0 | 0 | 0
13 | CN(C(=O)CCCOc1ccc2[nH]c(=O)ccc2c1)C1CCCCC1 [cilostamide] | 100% | 94.7% | 99.2% | 96.9% | 90.6% | 92.8% | 92.9% | 94.6% | 85.3% | 105% | 97.2% | 98.7% | 98.8% | 110% | 110% | 102% | 95.5% | 101% | 92.9% | 97% | 91.7% | 98.3% | 89.8% | 98.1% | 104% | > 10 µM | > 10 µM | > 10 µM | > 10 µM | > 10 µM | 0 | 0 | 0 | 0 | 0
